In patent publication US20240368668A1, “SUBSTRATES AND BIOMARKERS OF ADAMTS7” (The Broad Institute, Inc., priority 2021, published 2024):
Square brackets hold non-standard residues; d marks the D form. Ends that are not written are not given here. Met(O) = CS(=O)CC[C@H](N)C(=O)O

tested on: mouse ADAMTS7; experiment: TMT10 TAILS N-terminomics, HUVEC experiment (process replicates, trypsin/AspN digest); format: cell-based, human; conditions: HUVEC TAILS HC; log fold change of N-terminal peptide, Ad-mADAMTS7 WT over EQ
How it was run: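 Full-length mouse ADAMTS7 (WT or E373Q mutant, C-terminal 3xFLAG) or luciferase was transduced via adenovirus, 50 MOI, into HCA-SMC (SMC1, SMC2) or HUVEC. SMC1: pooled media, technical triplicates 400 ug; SMC2: process triplicates 300 ug; HUVEC: process triplicates 200 ug, bFGF2 10 ng/ml.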

In order of rising logFC.mWT.over.mEQ:
1. MCFD2_55 (HLEGVINKPEA; listed as Homo sapiens)  0.99
2. ZYX_244 (PVSLANTQPR; listed as Homo sapiens)  1.02
3. PTBP1_376 (AAAAAGR; listed as Homo sapiens)  1.06
4. BICD1_280 (NNDDKMNGHIHGPLVKLNGDYR; listed as Homo sapiens)  1.31
5. UQCRH_76 (HGSPNNSERAMRAVGE[Met(O)]CKGPGAAR; listed as Homo sapiens)  1.38
6. FN1_1624 (LVQTAVTTIPAPT; listed as Homo sapiens)  1.56
7. CLU_267 (FQHPPTEFIR; listed as Homo sapiens)  1.64
8. LTBP3_164 (LSTGALPPLAPEG; listed as Homo sapiens)  2.21
9. THBS1_630 (FGQGVEHATANK; listed as Homo sapiens)  2.28
10. PSAP_301 (LVEPIKKH; listed as Homo sapiens)  2.44
11. CTGF_174 (VVGPALAAYR; listed as Homo sapiens)  2.44
12. PZP_578 (HAHLQVAAAPQSLCALR; listed as Homo sapiens)  2.45
13. LTBP3_205 (HAAFLVPLGPGQISA; listed as Homo sapiens)  2.54
14. ASMT_321 (LSSAGFR; listed as Homo sapiens)  2.56
15. LTBP2_253 (GEGTLAR; listed as Homo sapiens)  2.99
16. FN1_1743 (WESPQGQVSR; listed as Homo sapiens)  3.05
17. LTBP3_221 (VQAPPPVVNVR; listed as Homo sapiens)  3.11
18. CTGF_173 (TVVGPALAAYR; listed as Homo sapiens)  3.39
19. LTBP2_129 (QQQPAPR; listed as Homo sapiens)  5.32
